According to patent publication US12077503B2, “Substituted cyclic amides and their use as herbicides” (FMC CORPORATION, priority 2015, dated 2024):

Tests used:
Format in all cases: in vivo
Kochia (Kochia scoparia) [1] = test: Test A preemergence; conditions: Bassia scoparia, pre-emergence, 240 h; for pest or weed control at 125 g/ha: 125 g ai/ha, preemergence, 0 to 100 scale where 0 is no effect and 100 is complete control, read-out: Kochia plant response rating; for pest or weed control at 500 g/ha: 500 g ai/ha, Preemergence, visual injury vs untreated controls after approximately 10 d, read-out: Kochia plant response rating (0 to 100 scale where 0 is no effect and 100 is complete control)
Summary of the method: (§1)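 Greenhouse, ~10 d after spray; visual injury vs untreated controls, 0 = no effect, 100 = complete control. Preemergence: directed soil spray over planted seeds. Postemergence: plants 2–10 cm, 1–2 leaf stage. Loam/sand blend. Compound in non-phytotoxic solvent with surfactant.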

[2] = tested on: barnyardgrass (Echinochloa crus-galli); test: Test A preemergence; conditions: Echinochloa crus-galli, pre-emergence, 240 h; for pest or weed control at 125 g/ha: 125 g ai/ha, preemergence, 0 to 100 scale where 0 is no effect and 100 is complete control, read-out: Barnyardgrass plant response rating; for pest or weed control at 500 g/ha: 500 g ai/ha, Preemergence, visual injury vs untreated controls after approximately 10 d, read-out: Barnyardgrass plant response rating (0 to 100 scale where 0 is no effect and 100 is complete control)
Summary of the method: as §1

[3] = tested on: giant foxtail (Setaria faberii); test: Test A preemergence; conditions: Setaria faberi, pre-emergence, 240 h; for pest or weed control at 125 g/ha: 125 g ai/ha, preemergence, 0 to 100 scale where 0 is no effect and 100 is complete control, read-out: Foxtail, Giant plant response rating; for pest or weed control at 500 g/ha: 500 g ai/ha, Preemergence, visual injury vs untreated controls after approximately 10 d, read-out: Foxtail, Giant plant response rating (0 to 100 scale where 0 is no effect and 100 is complete control)
Summary of the method: as §1

[4] = tested on: pigweed (Amaranthus retroflexus); test: Test A preemergence; conditions: Amaranthus retroflexus, pre-emergence, 240 h; for pest or weed control at 125 g/ha: 125 g ai/ha, preemergence, 0 to 100 scale where 0 is no effect and 100 is complete control, read-out: Pigweed plant response rating; for pest or weed control at 500 g/ha: 500 g ai/ha, Preemergence, visual injury vs untreated controls after approximately 10 d, read-out: Pigweed plant response rating (0 to 100 scale where 0 is no effect and 100 is complete control)
[5] = tested on: ragweed (common ragweed, Ambrosia elatior); test: Test A preemergence; conditions: Ambrosia artemisiifolia, pre-emergence, 240 h; for pest or weed control at 125 g/ha: 125 g ai/ha, preemergence, 0 to 100 scale where 0 is no effect and 100 is complete control, read-out: Ragweed plant response rating; for pest or weed control at 500 g/ha: 500 g ai/ha, Preemergence, visual injury vs untreated controls after approximately 10 d, read-out: Ragweed plant response rating (0 to 100 scale where 0 is no effect and 100 is complete control)
Summary of the method: as §1

[6] = tested on: ryegrass, Italian (Italian ryegrass, Lolium multiflorum); test: Test A preemergence; conditions: Lolium multiflorum, pre-emergence, 240 h; for pest or weed control at 125 g/ha: 125 g ai/ha, preemergence, 0 to 100 scale where 0 is no effect and 100 is complete control, read-out: Ryegrass, Italian plant response rating; for pest or weed control at 500 g/ha: 500 g ai/ha, Preemergence, visual injury vs untreated controls after approximately 10 d, read-out: Ryegrass, Italian plant response rating (0 to 100 scale where 0 is no effect and 100 is complete control)
Summary of the method: as §1

Kochia (Kochia scoparia) [7] = test: Test A postemergence; conditions: Bassia scoparia, post-emergence, 240 h, 125 g ai/ha, Postemergence; visual injury after approximately 10 d; 0 to 100 scale where 0 is no effect and 100 is complete control; read-out: Plant response rating, Kochia
Summary of the method: as §1

[8] = tested on: barnyardgrass (Echinochloa crus-galli); test: Test A postemergence; conditions: Echinochloa crus-galli, post-emergence, 240 h, 125 g ai/ha, Postemergence; visual injury after approximately 10 d; 0 to 100 scale where 0 is no effect and 100 is complete control; read-out: Plant response rating, Barnyardgrass
Summary of the method: as §1

[9] = tested on: blackgrass (Alopecurus myosuroides); test: Test A postemergence; conditions: Alopecurus myosuroides, post-emergence, 240 h, 125 g ai/ha, Postemergence; visual injury after approximately 10 d; 0 to 100 scale where 0 is no effect and 100 is complete control; read-out: Plant response rating, Blackgrass
Summary of the method: as §1

[10] = tested on: pigweed (Amaranthus retroflexus); test: Test A postemergence; conditions: Amaranthus retroflexus, post-emergence, 240 h, 125 g ai/ha, Postemergence; visual injury after approximately 10 d; 0 to 100 scale where 0 is no effect and 100 is complete control; read-out: Plant response rating, Pigweed
Summary of the method: as §1

[11] = tested on: barnyardgrass (Echinochloa crus-galli); test: Test B flooded paddy test; conditions: Echinochloa crus-galli, Flood, 250 g ai/ha; scale of 0 to 100 where 0 is no effect and 100 is complete control; read-out: Barnyardgrass plant response rating
Summary of the method: (§2)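 Plants at 2-leaf stage flooded to 3 cm above soil, with compounds applied directly to paddy water and that depth maintained. Plants kept in greenhouse 13–15 d. Visual rating versus controls on a 0 (no effect) to 100 (complete control) scale.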

[12] = tested on: ducksalad (Heteranthera limosa); test: Test B flooded paddy test; conditions: Heteranthera limosa, Flood, 250 g ai/ha; scale of 0 to 100 where 0 is no effect and 100 is complete control; read-out: Ducksalad plant response rating
Summary of the method: as §2

rice (Oryra sativa) = test: Test B flooded paddy test; conditions: Oryza sativa, Flood, 250 g ai/ha; scale of 0 to 100 where 0 is no effect and 100 is complete control; read-out: Rice plant response rating
Summary of the method: as §2

[13] = tested on: sedge, umbrella (small-flower umbrella sedge, Cyperus difformis); test: Test B flooded paddy test; conditions: Cyperus difformis, Flood, 250 g ai/ha; scale of 0 to 100 where 0 is no effect and 100 is complete control; read-out: Sedge, Umbrella plant response rating
Summary of the method: as §2

CON1CC[C@H](c2ccc(F)cc2)[C@@H](C(=O)Nc2cccc(F)c2F)C1=O [Compound 918]
pest or weed control at 125 g/ha (Kochia (Kochia scoparia) [1]): 0%
pest or weed control at 500 g/ha (Kochia (Kochia scoparia) [1]): 0%
pest or weed control at 125 g/ha [2]: 0%
pest or weed control at 500 g/ha [2]: 40%
pest or weed control at 125 g/ha [3]: 20%
pest or weed control at 500 g/ha [3]: 70%
pest or weed control at 125 g/ha [4]: 0%
pest or weed control at 500 g/ha [4]: 0%
pest or weed control at 125 g/ha [5]: 0%
pest or weed control at 500 g/ha [5]: 0%
pest or weed control at 125 g/ha [6]: 0%
pest or weed control at 500 g/ha [6]: 0%
pest or weed control at 125 g/ha (Kochia (Kochia scoparia) [7]): 0%
pest or weed control at 125 g/ha [8]: 0%
pest or weed control at 125 g/ha [9]: 40%
pest or weed control at 125 g/ha [10]: 0%
pest or weed control at 250 g/ha [11]: 0%
pest or weed control at 250 g/ha [12]: 30%
pest or weed control at 250 g/ha (rice (Oryra sativa)): 15%
pest or weed control at 250 g/ha [13]: 0%

CN1CC[C@H](c2cccc(C(F)(F)F)c2)[C@@H](C(=O)Nc2ccccc2S(C)(=O)=O)C1=O [Compound 920]
pest or weed control at 125 g/ha (Kochia (Kochia scoparia) [1]): 0%
pest or weed control at 500 g/ha (Kochia (Kochia scoparia) [1]): 0%
pest or weed control at 125 g/ha [2]: 70%
pest or weed control at 500 g/ha [2]: 90%
pest or weed control at 125 g/ha [3]: 80%
pest or weed control at 500 g/ha [3]: 90%
pest or weed control at 125 g/ha [4]: 0%
pest or weed control at 500 g/ha [4]: 0%
pest or weed control at 125 g/ha [5]: 0%
pest or weed control at 500 g/ha [5]: 0%
pest or weed control at 125 g/ha [6]: 0%
pest or weed control at 500 g/ha [6]: 0%
pest or weed control at 125 g/ha (Kochia (Kochia scoparia) [7]): 0%
pest or weed control at 125 g/ha [8]: 40%
pest or weed control at 125 g/ha [9]: 0%
pest or weed control at 125 g/ha [10]: 0%
pest or weed control at 250 g/ha [11]: 0%
pest or weed control at 250 g/ha [12]: 0%
pest or weed control at 250 g/ha (rice (Oryra sativa)): 0%
pest or weed control at 250 g/ha [13]: 0%

CN1CC[C@H](c2cccc(Cl)c2)[C@@H](C(=O)Nc2cccc(F)c2F)C1=O [Compound 921]
pest or weed control at 125 g/ha (Kochia (Kochia scoparia) [1]): 0%
pest or weed control at 500 g/ha (Kochia (Kochia scoparia) [1]): 30%
pest or weed control at 125 g/ha [2]: 90%
pest or weed control at 500 g/ha [2]: 90%
pest or weed control at 125 g/ha [3]: 90%
pest or weed control at 500 g/ha [3]: 100%
pest or weed control at 125 g/ha [4]: 0%
pest or weed control at 500 g/ha [4]: 0%
pest or weed control at 125 g/ha [5]: 0%
pest or weed control at 500 g/ha [5]: 0%
pest or weed control at 125 g/ha [6]: 50%
pest or weed control at 500 g/ha [6]: 60%
pest or weed control at 125 g/ha (Kochia (Kochia scoparia) [7]): 0%
pest or weed control at 125 g/ha [8]: 90%
pest or weed control at 125 g/ha [9]: 20%
pest or weed control at 125 g/ha [10]: 0%
pest or weed control at 250 g/ha [11]: 85%
pest or weed control at 250 g/ha [12]: 90%
pest or weed control at 250 g/ha (rice (Oryra sativa)): 20%
pest or weed control at 250 g/ha [13]: 0%
